According to patent US20220280525A1, “RAC INHIBITION AS A NOVEL THERAPEUTIC STRATEGY FOR EGFR/HER2 TARGETED THERAPY RESISTANT BREAST CANCER” (UNIVERSITY OF PUERTO RICO, priority 2021, published 2022):
Like-named read-outs stand apart in the source and are kept apart here.

Key:
[1] = system: SKBR3 therapy sensitive cells; experiment: Mammosphere assay, therapy sensitive SKBR3 cells; details: 0.5 μM gefitinib or 0.1 μM lapatinib
[2] = system: SKBR3 therapy sensitive cells; experiment: Caspase-Glo 3/7 apoptosis assay, therapy sensitive SKBR3 cells; type: cell-based, human; details: gefitinib, 48 h, vs vehicle
Method: (§1) FIG. 3A-3B. Apoptosis in therapy sensitive and resistant variants Apoptosis in therapy sensitive and resistant SKBR3 cell variants was detected by a Caspase-Glo 3/7 Assay. (A) Fold change in Caspase 3/7 activity in the therapy sensitive SKBR3 cell line following Gef or Lap treatment for 48 h compared to the vehicle controls. (B) Fold change in caspase 3/7 activity in the therapy resistant cell lines following treatment compared to non-treated cells. N=3±SEM, *=p≤0.05, ***=p≤0.005
(§2) Apoptosis was analyzed by the Caspase-Glo 3/7 activity assay (Promega) as described by the manufacturer. Briefly, cells were seeded in a 96 well plate and treated for 48h. Luminogenic caspase- 3/7 substrate containing a DEVD sequence was added and incubated for 1h. The luminescence was measured by a plate-reading luminometer.

[3] = system: SKBR3 therapy resistant variants; experiment: Mammosphere assay, therapy resistant SKBR3 variants; details: therapy resistant variants treated with gefitinib or lapatinib
[4] = system: HER2+ and EGFR+breast cancer cells; experiment: Mammosphere forming efficiency with Rac inhibitors; type: cell-based
[5] = system: SKBR3 gefitinib resistant (Gef.R) cells; type: cell-based, human
[6] = system: SKBR3 lapatinib resistant (Lap.R) cells; experiment: MTT cell viability assay, lapatinib resistant SKBR3 variant; details: for decrease in cell viability: Lap.R SKBR3
[7] = system: SKBR3 therapy sensitive cells; experiment: MTT cell viability assay, therapy sensitive SKBR3 cells; type: cell-based, human; details: 5 and 10 μM, 24 h
Text: (§3) FIG. 6A-6F. […] N=3±SEM *=p≤0.05, **=p≤0.01****=p≤0.001.

[8] = system: Rac; experiment: Effective concentration of Rac inhibitors; details: relative to NSC23766
[9] = system: SKBR3 lapatinib resistant cells; experiment: Caspase-Glo 3/7 apoptosis assay, lapatinib resistant SKBR3 cells; type: cell-based, human
Method: as §1, §3, §2

[10] = system: MDA-MB-435 HER2+ cells resistant to lapatinib and trastuzumab; experiment: MTT cell viability assay, therapy resistant MDA-MB-435 variant; type: cell-based; details: 48 h
[11] = target: HER2 (Homo sapiens, UniProt P04626)
[12] = system: Rac; details: Tiam1/Rac inhibitor, most studies; cited from earlier work
[13] = system: Trastuzumab resistant SKBR3 cells; experiment: MTT cell viability assay, Trastuzumab resistant SKBR3 variant; type: cell-based; details: Homo sapiens; for cytotoxicity at 0.25 µM: SK-BR-3
[14] = system: Trastuzumab resistant SKBR3 variant; experiment: Caspase 3/7 apoptosis assay, Trastuzumab resistant SKBR3 variant; type: cell-based, human
[15] = system: gefitinib resistant SKBR3 variants; experiment: Cell phenotype of gefitinib resistant SKBR3 variants after Rac inhibitor; type: cell-based, human
[16] = MBQ-167 250 nM, Lapatinib resistant SKBR3

With COc1cc2ncnc(Nc3ccc(F)c(Cl)c3)c2cc1OCCCN1CCOCC1 [gefitinib] the mammosphere formation [1] was “significant reduction in mammosphere formation”, the “apoptosis (caspase 3/7 activity)” value [2] was “did not respond to gefitinib by apoptosis” and the mammosphere formation [3] was “no significant effect on mammosphere formation”.

In the case of CCn1c2ccccc2c2cc(Nc3ccnc(NCCCN4CCOCC4)n3)ccc21 [EHop-016], the “mammosphere forming efficiency (MFE)” value [4] is reported as “significantly reduce the MFE”, the cell viability [5] is reported as “statistically significant decrease in cell viability” and the cell viability ([6]; lapatinib resistant SKBR3, 5 and 10 μM, 24 h) is reported as “statistically significant decrease in cell viability”. For the same molecule, the cell viability [7] was “statistically significant decrease in cell viability” and the “effective concentration lower than NSC23766” value [8] was 100 ×.

With CS(=O)(=O)CCNCc1ccc(-c2ccc3ncnc(Nc4ccc(OCc5cccc(F)c5)c(Cl)c4)c3c2)o1 [lapatinib] the mammosphere formation [1] was “significant reduction in mammosphere formation”, the “caspase 3/7 activity” value ([9]; lapatinib resistant variant in response to lapatinib) was “significant decrease in caspase 3/7 activity” and the “sensitivity of cell viability” value ([10]; single agent) was “insensitive”. The cell viability ([6]; Lap.R cells, lapatinib alone) was “did not affect the viability”, the “expression of total HER2” value ([11]; sensitive SKBR3 cells, 24 h, 0.5 μM gefitinib, 0.1 μM lapatinib) was “significantly elevated” and the pHER2 levels ([11]; variants resistant to gefitinib 0.1 μM and lapatinib 0.1 μM, each with its own drug) was “decreased pEGFR and pHER2 levels”. For the same molecule, the mammosphere formation [3] was “no significant effect on mammosphere formation”.

For CCN(CC)CCCC(C)Nc1nc(C)cc(Nc2ccc3nc(C)cc(N)c3c2)n1 (centres unmarked) [NSC23766], the active concentration [12] is given as 50 to 100 µM.

For CCn1c2ccccc2c2cc(-n3nncc3-c3ccccc3)ccc21 (racemic) [MBQ-167], the “mammosphere forming efficiency (MFE)” value [4] was “significantly reduce the MFE”, the IC50 ([13]; SK-BR-3, read-out: IC50 (cell viability)) was 100 nM and the cytotoxicity at 0.25 µM ([13]; 96 and 120h, 250 nM MBQ-167, read-out: reduction of viability) was 90 to 100%. For the same molecule, the cytotoxicity at 0.25 µM ([13]; 72 h, saturated at 250 nM, read-out: decrease in viability) was 50%, the “increase in caspase 3/7 activity” value ([9]; MBQ-167 0.25 μM alone, Lap.R SKBR3) was greater than 2 fold and the caspase activity ([9]; MBQ-167 0.25 μM in combination with lapatinib 0.5 μM, Lap.R SKBR3) was “even higher significant increase in caspase activity”. For the same molecule, the apoptosis induction [9, 16] was 55%, the “decrease in cell viability” value ([10]; MBQ-167 alone) was roughly 40% and the cell viability ([10]; MBQ-167 in the presence of trastuzumab) was “inhibits MDA-MB-435 cell viability”. The “decrease in cell viability” value ([6]; 0.5 μM MBQ-167 alone) was roughly 40%, the “decrease in cell viability” value ([6]; 0.5 μM MBQ-167 in combination with 0.5 μM lapatinib) was roughly 40% and the reduction of viability [6, 16] was 30%. The “apoptosis (Caspase 3/7)” value ([14]; MBQ-167 in the presence of Trastuzumab) was “only partially overcame this resistance to apoptosis”, the “apoptosis (Caspase 3/7)” value ([14]; single agent, MBQ-167 at 250-750 nM) was “induced apoptosis” and the cell phenotype [15] was “cell rounding, detachment from the substrate, and subsequent death”. For the same molecule, the “effective concentration lower than NSC23766” value [8] was 100 ×.
